In ChEMBL document CHEMBL1136552, “Synthesis and preliminary cytotoxicity of nitrogen mustard derivatives of distamycin A” (Bioorg Med Chem Lett, 2003) one finds IC50 data, which are given here for 6 compounds.

Each structure is given as a SMILES string.

The experiment concerns K562. Nature of the experiment: Cytotoxicity against K562 leukemia cells in vitro, expressed as the minimal concentration necessary to inhibit incorporation of [3H]thymidine by 50%. The experiment is classed as functional, cell-based. The following applies: Homo sapiens, K562, 48 h.
Broadly, the IC50 is the concentration that gives 50% inhibition. Turning to `CCCONc1cc(C(=O)Nc2cc(C(=O)Nc3cc(C(=O)Nc4ccc(N(CCCl)CCCl)cc4)n(C)c3)n(C)c2)n(C)c1`, the IC50 worked out at 30 nM.
In turn, `CCCONc1cc(C(=O)Nc2cc(C(=O)Nc3ccc(N(CCCl)CCCl)cc3)n(C)c2)n(C)c1` displayed an IC50 of 250 nM. Against the preceding compound, the IC50 is about 8.3-fold higher.
Under `CCCC(=O)Nc1cc(/C=C/C(=O)Nc2cc(C(=O)Nc3ccc(N(CCCl)CCCl)cc3)n(C)c2)n(C)c1` stands 210 nM; under `CCCC(=O)Nc1cc(/C=C/C(=O)Nc2ccc(N(CCCl)CCCl)cc2)n(C)c1`, 1200 nM; under `CCCONc1cc(C(=O)Nc2ccc(N(CCCl)CCCl)cc2)n(C)c1`, 950 nM.
Under `O=C(O)CCCc1ccc(N(CCCl)CCCl)cc1` [CHLORAMBUCIL] stands 35000 nM.
